From US4272437A, “Antibacterial agents, and 4-thio azetidinone intermediates” (priority 1979, dated 1981)
In brackets after ≈: the same amount, converted by molar mass. Read-outs that look alike come from different tables or passages of the source.

How the values were obtained:
[1] = test system: Proteus rettgeri A21203; assay: MIC, tube dilution, Proteus rettgeri A21203; format: cell-based; conditions: Providencia rettgeri, A21203, Proteus rettgeri A21203; overnight 37° C.; read-out: Minimum Inhibitory Concentration (M.I.C.)
Description: (§1) Representative compounds of the present invention were subjected to in vitro antibiotic screening against a variety of microorganisms.

[2] = test system: K. pneumoniae A-15130; assay: MIC, tube dilution, Klebsiella pneumoniae A15130; format: cell-based; conditions: Klebsiella pneumoniae, A15130, K. pneumoniae A15130; overnight 37° C.; read-out: Minimum Inhibitory Concentration (M.I.C.)
Description: as §1

[3] = test system: Str. pyogenes A-9604; assay: MIC, tube dilution, Streptococcus pyogenes A9604; format: cell-based; conditions: Streptococcus pyogenes, A9604, Str. pyogenes A9604; overnight 37° C., Nutrient Broth; read-out: Minimum Inhibitory Concentration (M.I.C.)
Description: as §1

[4] = test system: Ps. aeruginosa A-21213; assay: MIC, tube dilution, Pseudomonas aeruginosa A21213; format: cell-based; conditions: overnight 37° C.; for MIC: read-out: Minimum Inhibitory Concentration (M.I.C.)
Description: as §1

[5] = test system: Pr. mirabilis A-9900; assay: MIC, tube dilution, Proteus mirabilis A9900; format: cell-based; conditions: Proteus mirabilis, A9900, Proteus mirabilis A9900; overnight 37° C.; read-out: Minimum Inhibitory Concentration (M.I.C.)
Description: as §1

[6] = test system: S. aureus A9537; assay: In vivo protection of mice, lethal infection with S. aureus A9537; conditions: Staphylococcus aureus, A9537, im, IM, 2 treatments, read-out: PD50
Experimental: Representative compounds of the present invention were also tested in vivo in mice and their PD50 (dose of compound in mg/kg required to protect 50% of the treated mice against an otherwise lethal infection of a micro-organism) values determined with respect to the test organisms shown below.

[7] = test system: Staph. aureus A-9537 and 50% serum; assay: MIC, tube dilution, Staph. aureus A9537 + 50% serum; format: cell-based, Staphylococcus aureus; conditions: Staphylococcus aureus, overnight 37° C., read-out: Minimum Inhibitory Concentration (M.I.C.)
Description: as §1

[8] = test system: Staph. aureus (Pen-Res) A-9606; assay: MIC, tube dilution, Staphylococcus aureus A9606 (Pen-Res); format: cell-based; conditions: Staphylococcus aureus, Staph. aureus A9606 (Pen-Res); overnight 37° C.; read-out: Minimum Inhibitory Concentration (M.I.C.)
Description: as §1

[9] = test system: Ps. aeruginosa A-9843A; assay: MIC, tube dilution, Pseudomonas aeruginosa A9843A; format: cell-based; conditions: Pseudomonas aeruginosa, A9843A, read-out: Minimum Inhibitory Concentration (M.I.C.), Pseudomonas aeruginosa A9843A; overnight 37° C.
Description: as §1

[10] = test system: Ent. cloacae A-9659; assay: MIC, tube dilution, Enterobacter cloacae A9659; format: cell-based; conditions: overnight 37° C.; for MIC: Enterobacter cloacae, A9659, Enterobacter cloacae A9659, read-out: Minimum Inhibitory Concentration (M.I.C.)
Description: as §1

[11] = test system: Str. pneumoniae A-9585; assay: MIC, tube dilution, Streptococcus pneumoniae A9585; format: cell-based; conditions: Streptococcus pneumoniae, A9585, Str. pneumoniae A9585; overnight 37° C., Nutrient Broth; read-out: Minimum Inhibitory Concentration (M.I.C.)
Description: as §1

[12] = test system: E. coli A-15119; assay: MIC, tube dilution, Escherichia coli A15119; format: cell-based; conditions: Escherichia coli, A15119, E. coli A15119; overnight 37° C.; read-out: Minimum Inhibitory Concentration (M.I.C.)
Description: as §1

[13] = test system: Staph. aureus A-9537; assay: MIC, tube dilution, Staphylococcus aureus A9537; format: cell-based; conditions: Staphylococcus aureus, A9537, Staph. aureus A9537; overnight 37° C., Nutrient Broth; read-out: Minimum Inhibitory Concentration (M.I.C.)
Description: as §1

[14] = test system: E. coli A-20341-1; assay: MIC, tube dilution, Escherichia coli A20341-1; format: cell-based
Description: as §1

[15] = test system: Proteus vulgaris A21559; assay: MIC, tube dilution, Proteus vulgaris A21559; format: cell-based; conditions: Proteus vulgaris, A21559, Proteus vulgaris A21559; overnight 37° C.; read-out: Minimum Inhibitory Concentration (M.I.C.)
Description: as §1

[16] = test system: Pr. morganii A-15153; assay: MIC, tube dilution, Proteus morganii A15153; format: cell-based; conditions: Morganella morganii, A15153, Proteus morganii A15153; overnight 37° C.; read-out: Minimum Inhibitory Concentration (M.I.C.)
Description: as §1

[17] = test system: Ent. cloacae A-9656; assay: MIC, tube dilution, Enterobacter cloacae A9656; format: cell-based; conditions: overnight 37° C., read-out: Minimum Inhibitory Concentration (M.I.C.)
Description: as §1

[18] = Mouse blood levels after intramuscular administration; format: in vivo; conditions: average of 6 mice, read-out: Mouse blood level; for concentration at 10 min: 10 minutes after IM 40 mg/kg; for concentration at 20 min: 20 minutes after IM 40 mg/kg; for concentration at 0.5 h: 30 minutes after IM 40 mg/kg; for concentration at 0.75 h: 45 minutes after IM 40 mg/kg; for concentration at 1 h: 60 minutes after IM 40 mg/kg; for concentration at 1.5 h: 90 minutes after IM 40 mg/kg; for concentration at 2 h: 120 minutes after IM 40 mg/kg
Experimental: Mouse blood levels after intramuscular administration of representative compounds of the present invention were determined and are reported in the table below.

[19] = test system: Klebsiella species A20468; assay: MIC, tube dilution, Klebsiella species A20468; format: cell-based; conditions: Klebsiella species (K. pneumoniae) A20468; overnight 37° C.; read-out: Minimum Inhibitory Concentration (M.I.C.)
Description: as §1

[20] = test system: Str. faecalis A-20688; assay: MIC, tube dilution, Streptococcus faecalis A20688; format: cell-based; conditions: Enterococcus faecalis, A20688, Str. faecalis A20688; overnight 37° C.; read-out: Minimum Inhibitory Concentration (M.I.C.)
Description: as §1

[21] = test system: Ser. marcescens A-20019; assay: MIC, tube dilution, Serratia marcescens A20019; format: cell-based; conditions: Serratia marcescens, A20019, Serratia marcescens A20019; overnight 37° C.; read-out: Minimum Inhibitory Concentration (M.I.C.)
Description: as §1

[22] = test system: Staph. aureus (Meth-Res) A-15097; assay: MIC, tube dilution, Staphylococcus aureus A15097 (Meth-Res); format: cell-based; conditions: Staphylococcus aureus, overnight 37° C.
Description: as §1

[23] = Pseudomonas aeruginosa, A21213, Pseudomonas aeruginosa A21213
[24] = Escherichia coli, A203411, E. coli A20341-1; overnight 37° C.; read-out: Minimum Inhibitory Concentration (M.I.C.)
[25] = Enterobacter cloacae, A9656, Enterobacter cloacae A9656
[26] = read-out: Minimum Inhibitory Concentration (M.I.C.), Staph. aureus A15097 (Meth-Res)

Compound	MIC [1] [µg/mL]	MIC [2] [µg/mL]	MIC [3] [µg/mL]	MIC [4, 23] [µg/mL]	MIC [5] [µg/mL]	MIC [7] [µg/mL]	MIC [8] [µg/mL]	MIC [9] [µg/mL]	MIC [10] [µg/mL]	MIC [11] [µg/mL]	MIC [12] [µg/mL]	MIC [13] [µg/mL]	MIC [14, 24] [µg/mL]	MIC [15] [µg/mL]	MIC [16] [µg/mL]	MIC [17, 25] [µg/mL]	concentration at 10 min [18] [ng/mL]	MIC [19] [µg/mL]	MIC [20] [µg/mL]	MIC [21] [µg/mL]	other results
C[C@@H](O)[C@H]1C(=O)N2C(C(=O)O)=C([C@H]3C[C@H](N)C3)S[C@H]12 (relative stereo) [Example 65, (1"R,5R,6S and 1'S,5S,6R)-2-(trans-3'-Amino-1'-cyclobutyl)-6-(1"-hydroxy-1"-ethyl)penem-3-carboxylic Acid (isomer B)]	< 0.25	< 0.25	0.004 (≈ 0.0141 µM)	125 (≈ 440 µM)	< 0.25	0.06	0.06 (≈ 0.211 µM)	16 (≈ 56.3 µM)	4 (≈ 14.1 µM)	0.004 (≈ 0.0141 µM)	0.13 (≈ 0.457 µM)	0.008 (≈ 0.0281 µM)	< 0.25	< 0.25	1 (≈ 3.52 µM)	0.5 (≈ 1.76 µM)	44700	0.5 (≈ 1.76 µM)	0.5 (≈ 1.76 µM)	0.5 (≈ 1.76 µM)	Minimum Inhibitory Concentration (M.I.C.) ([4]; Pseudomonas aeruginosa A21213): 63 µg/mL; ED50 ([6]; 7.8 × 10^5 organisms): 0.12 mg/kg; Minimum Inhibitory Concentration (M.I.C.) ([10]; Enterobacter cloacae A9659): 2 µg/mL; concentration at 20 min [18]: 34400 ng/mL; concentration at 0.5 h [18]: 23700 ng/mL; concentration at 0.75 h [18]: 17600 ng/mL; concentration at 1 h [18]: 9800 ng/mL; concentration at 1.5 h [18]: 3600 ng/mL; concentration at 2 h [18]: 1000 ng/mL
CC1(C)OCC(C(N)C2=C(C(=O)O)N3C(=O)CC3S2)O1 [Example 84, (1'R,2'R,5R and 1'S,2'S,5S),(1'R,2'R,5S and 1'S,2'S,5R), (1'R,2'S,5S and 1'S,2'R,5R), (1'R,2'S,5R and 1'S,2'R,5S) 2-(1'-Amino-2,3-dihydroxy-2,3-acetonylpropyl)-penem-3-carboxylic Acid]	32 (≈ 107 µM)	125 (≈ 416 µM)	1 (≈ 3.33 µM)		8 (≈ 26.6 µM)	32	16 (≈ 53.3 µM)	> 125	125 (≈ 416 µM)	1 (≈ 3.33 µM)	16 (≈ 53.3 µM)	4 (≈ 13.3 µM)		63 (≈ 210 µM)	16 (≈ 53.3 µM)			> 125	> 125	63 (≈ 210 µM)	MIC ([4]; Pseudomonas aeruginosa A21213): > 125 µg/mL; ED50 ([6]; 1 × 10^6 organisms): 33 mg/kg; MIC ([14]; Escherichia coli, A203411; E. coli A20341-1; overnight 37° C.; read-out: Minimum Inhibitory Concentration (M.I.C.)): > 125 µg/mL; MIC ([17]; Enterobacter cloacae A9656): 125 µg/mL (≈ 416 µM); MIC [22, 26]: > 125 µg/mL
NCCOCC1=C(C(=O)O)N2C(=O)CC2S1 (stereo not drawn) [Example 86, 2-(2-Aminoethoxymethyl)penem-3-carboxylic Acid]	2 (≈ 8.19 µM)	4 (≈ 16.4 µM)	0.13 (≈ 0.532 µM)	125 (≈ 512 µM)	2 (≈ 8.19 µM)	1	32 (≈ 131 µM)	63 (≈ 258 µM)	8 (≈ 32.8 µM)	0.13 (≈ 0.532 µM)	2 (≈ 8.19 µM)	0.13 (≈ 0.532 µM)	8 (≈ 32.8 µM)	8 (≈ 32.8 µM)	8 (≈ 32.8 µM)	4 (≈ 16.4 µM)	36000	> 125	32 (≈ 131 µM)	2 (≈ 8.19 µM)	ED50 ([6]; 1 × 10^6 organisms): 1.9 mg/kg; concentration at 20 min [18]: 26300 ng/mL; concentration at 0.5 h [18]: 16500 ng/mL; concentration at 0.75 h [18]: 7500 ng/mL; concentration at 1 h [18]: 4000 ng/mL; concentration at 1.5 h [18]: < 3100 ng/mL; concentration at 2 h [18]: < 3100 ng/mL; MIC ([22]; Staph. aureus A15097 (Meth-Res), read-out: Minimum Inhibitory Concentration (M.I.C.)): 125 µg/mL (≈ 512 µM)
O=C(O)C1=C(CCC[N+](=O)[O-])SC2CC(=O)N12 (stereo not drawn) [Example 91, 2-(3'-Nitropropyl)-penem-3-carboxylic Acid]	2 (≈ 7.74 µM)	16 (≈ 62 µM)	0.25 (≈ 0.968 µM)		1 (≈ 3.87 µM)	16	32 (≈ 124 µM)	125 (≈ 484 µM)	4 (≈ 15.5 µM)	0.25 (≈ 0.968 µM)	1 (≈ 3.87 µM)	0.25 (≈ 0.968 µM)	63 (≈ 244 µM)	8 (≈ 31 µM)	4 (≈ 15.5 µM)	2 (≈ 7.74 µM)		> 125	63 (≈ 244 µM)	4 (≈ 15.5 µM)	MIC ([4]; Pseudomonas aeruginosa A21213): 125 µg/mL (≈ 484 µM); ED50 ([6]; 9.1 × 10^5 organisms): 9.6 mg/kg; MIC [22, 26]: > 125 µg/mL
